Experimental data published in ChEMBL document CHEMBL1150438, “Benzimidazole ribonucleosides: Observation of an unexpected nitration when performing non-aqueous diazotizations with t-butyl nitrite” (Bioorg Med Chem Lett, 1992).

How the values were obtained:
[1] = system: Human betaherpesvirus 5; assay: Compound was tested for antiviral activity against human cytomegalovirus (HCMV) plaque reduction assay; format: functional, organism-based
[2] = system: Human alphaherpesvirus 1; assay: Compound was tested for antiviral activity against HSV-1; format: functional, organism-based
[3] = system: HFF; assay: Cytotoxicity against human foreskin fibroblasts (HFF) cells; format: functional, cell-based
[4] = system: Human betaherpesvirus 5; assay: Compound was tested for antiviral activity against human cytomegalovirus (HCMV) yield reduction assay; format: functional

Compound	IC50 [1]	IC50 [2]	IC50 [3]	IC90 [4]
Nc1c(Cl)c(Cl)cc2c1nc(O)n2C1O[C@H](CO)[C@@H](O)[C@H]1O (some centres not stated)	> 100 µM	> 100 µM	> 100 µM	
OC[C@H]1OC(n2c(I)nc3cc(Cl)c(Cl)cc32)[C@H](O)[C@@H]1O (some centres not stated)			127 µM	26 µM
OC[C@H]1OC(n2c(O)nc3cc(Cl)c(Cl)cc32)[C@H](O)[C@@H]1O (some centres not stated)	> 100 µM	> 100 µM		
O=[N+]([O-])c1c(Cl)c(Cl)cc2c1nc(O)n2C1O[C@H](CO)[C@@H](O)[C@H]1O (some centres not stated)	> 100 µM	> 100 µM		
OC[C@H]1O[C@@H](n2cnc3cc(Cl)c(Cl)cc32)[C@H](O)[C@@H]1O [DICHLORORIBOBENZIMIDAZOLE]				19 µM
Nc1nc2c(ncn2COC(CO)CO)c(=O)[nH]1 [GANCICLOVIR]			> 100 µM	2 µM
